Publication PMC4503722, “Novel Phenotypic Outcomes Identified for a Public Collection of Approved Drugs from a Publicly Accessible Panel of Assays” (PLoS ONE, 2015)

Tested on: endothelial tube formation in co-cultures of ECFCs and ADSCs treated with VEGF
Test: cells
Format: cell-based, human
Settings: not given

Compound | VEGF_ADSC\ECFC Angio CD31 TubeArea IC50/EC50 | IC50/EC50, VEGF_ADSC\ECFC Angio CD31 TubeArea (assay number 2)
O=C(CCBr)N1CCN(C(=O)CCBr)CC1 [NCGC00095048-06] | 1.3723 µM | 
C[C@@H]1C[C@H]2[C@@H]3CCC4=CC(=O)C=C[C@]4(C)[C@@]3(Cl)[C@@H](O)C[C@]2(C)[C@@]1(OC(=O)c1ccco1)C(=O)CCl [NCGC00179578-03] | 4.9886 µM | 
CC(C)OC(=O)OCOP(=O)(CO[C@H](C)Cn1cnc2c(N)ncnc21)OCOC(=O)OC(C)C.O=C(O)/C=C/C(=O)O [NCGC00183876-03] | 3.8408 µM | 
Clc1ccc(Nc2nnc(Cc3ccncc3)c3ccccc23)cc1 [NCGC00181350-03] | 0.1109 µM | 
O=C(O)CCCc1ccc(N(CCCl)CCCl)cc1 [NCGC00015199-20] |  | 1.2446 µM
C1CN(P2(N3CC3)=NP(N3CC3)(N3CC3)=NP(N3CC3)(N3CC3)=N2)CCO1 (stereo not shown) [NCGC00160420-02] | 3.6152 µM | 
CC(=O)Nc1ccn(C2COC(COC(=O)c3ccccc3)O2)c(=O)n1 (stereo not shown) [NCGC00183850-01] | 2.3271 µM | 
C[C@]12CC[C@@H]3c4ccc(O)cc4CC[C@H]3[C@@H]1CC[C@@H]2OC(=O)CCC1CCCC1 [NCGC00166134-02] | 6.3667 µM | 
CCCCCCCCCCCCCCCCNc1ccc(C(=O)O)cc1 [NCGC00261985-01] | 0.3673 µM | 

Same assay, conditions: read-out: VEGF_ADSC\ECFC Angio CD31 TubeArea summarized IC50

Compound | IC50
O=c1[nH]c(=O)n([C@H]2C[C@H](O)[C@@H](CO)O2)cc1I [NCGC00179673-03] | 0.681 µM

Tested on: ECFC/ADSC co-culture cell nuclei number
Test: not given
Settings: not given

Compound | VEGF_ADSC\ECFC Angio Hoechst NucArea IC50/EC50 | IC50/EC50, VEGF_ADSC\ECFC Angio Hoechst NucArea (assay number 3)
O=C(CCBr)N1CCN(C(=O)CCBr)CC1 [NCGC00095048-06] | > 10 µM | 
C[C@@H]1C[C@H]2[C@@H]3CCC4=CC(=O)C=C[C@]4(C)[C@@]3(Cl)[C@@H](O)C[C@]2(C)[C@@]1(OC(=O)c1ccco1)C(=O)CCl [NCGC00179578-03] | > 10 µM | 
CC(C)OC(=O)OCOP(=O)(CO[C@H](C)Cn1cnc2c(N)ncnc21)OCOC(=O)OC(C)C.O=C(O)/C=C/C(=O)O [NCGC00183876-03] | > 10 µM | 
Clc1ccc(Nc2nnc(Cc3ccncc3)c3ccccc23)cc1 [NCGC00181350-03] | > 10 µM | 
O=C(O)CCCc1ccc(N(CCCl)CCCl)cc1 [NCGC00015199-20] |  | > 10 µM
C1CN(P2(N3CC3)=NP(N3CC3)(N3CC3)=NP(N3CC3)(N3CC3)=N2)CCO1 (stereo not shown) [NCGC00160420-02] | > 10 µM | 
CC(=O)Nc1ccn(C2COC(COC(=O)c3ccccc3)O2)c(=O)n1 (stereo not shown) [NCGC00183850-01] | > 10 µM | 
C[C@]12CC[C@@H]3c4ccc(O)cc4CC[C@H]3[C@@H]1CC[C@@H]2OC(=O)CCC1CCCC1 [NCGC00166134-02] | > 10 µM | 
CCCCCCCCCCCCCCCCNc1ccc(C(=O)O)cc1 [NCGC00261985-01] | > 10 µM | 

Same assay, conditions: read-out: VEGF_ADSC\ECFC Angio Hoechst NucArea summarized IC50

Compound | IC50
O=c1[nH]c(=O)n([C@H]2C[C@H](O)[C@@H](CO)O2)cc1I [NCGC00179673-03] | > 10 µM

Tested on: HeLa cells;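 for Hela CellCycMod PI 4N summarized IC50: value tracks stimulation of 4N DNA content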
Test: cells
Format: cell-based
Settings: 2N

Compound | IC50/EC50, Hela CellCycMod PI 2N (assay number 14)
O=C(O)CCCc1ccc(N(CCCl)CCCl)cc1 [NCGC00015199-20] | > 10 µM

Same assay, conditions: 4N

Compound | IC50/EC50, Hela CellCycMod PI 4N (assay number 16)
O=C(O)CCCc1ccc(N(CCCl)CCCl)cc1 [NCGC00015199-20] | > 10 µM

Same assay, conditions: Cell Number

Compound | IC50/EC50, Hela CellCycMod PI Cell Number (assay number 18)
O=C(O)CCCc1ccc(N(CCCl)CCCl)cc1 [NCGC00015199-20] | > 10 µM

Same assay, conditions: MI

Compound | IC50/EC50, Hela CellCycMod PI MI (assay number 17)
O=C(O)CCCc1ccc(N(CCCl)CCCl)cc1 [NCGC00015199-20] | > 10 µM

Same assay, conditions: S Phase

Compound | IC50/EC50, Hela CellCycMod PI S Phase (assay number 15)
O=C(O)CCCc1ccc(N(CCCl)CCCl)cc1 [NCGC00015199-20] | 2.1921 µM

Same assay, conditions: assay number 14; 2N

Compound | Hela CellCycMod PI 2N IC50/EC50
O=C(CCBr)N1CCN(C(=O)CCBr)CC1 [NCGC00095048-06] | > 10 µM
C[C@@H]1C[C@H]2[C@@H]3CCC4=CC(=O)C=C[C@]4(C)[C@@]3(Cl)[C@@H](O)C[C@]2(C)[C@@]1(OC(=O)c1ccco1)C(=O)CCl [NCGC00179578-03] | > 10 µM
CC(C)OC(=O)OCOP(=O)(CO[C@H](C)Cn1cnc2c(N)ncnc21)OCOC(=O)OC(C)C.O=C(O)/C=C/C(=O)O [NCGC00183876-03] | > 10 µM
Clc1ccc(Nc2nnc(Cc3ccncc3)c3ccccc23)cc1 [NCGC00181350-03] | > 10 µM
C1CN(P2(N3CC3)=NP(N3CC3)(N3CC3)=NP(N3CC3)(N3CC3)=N2)CCO1 (stereo not shown) [NCGC00160420-02] | > 10 µM
CC(=O)Nc1ccn(C2COC(COC(=O)c3ccccc3)O2)c(=O)n1 (stereo not shown) [NCGC00183850-01] | > 10 µM
C[C@]12CC[C@@H]3c4ccc(O)cc4CC[C@H]3[C@@H]1CC[C@@H]2OC(=O)CCC1CCCC1 [NCGC00166134-02] | > 10 µM
CCCCCCCCCCCCCCCCNc1ccc(C(=O)O)cc1 [NCGC00261985-01] | > 10 µM

Same assay, conditions: assay number 14; 2N; read-out: Hela CellCycMod PI 2N summarized IC50

Compound | IC50
O=c1[nH]c(=O)n([C@H]2C[C@H](O)[C@@H](CO)O2)cc1I [NCGC00179673-03] | > 10 µM

Same assay, conditions: assay number 15; S phase

Compound | Hela CellCycMod PI S Phase IC50/EC50
O=C(CCBr)N1CCN(C(=O)CCBr)CC1 [NCGC00095048-06] | > 10 µM
C[C@@H]1C[C@H]2[C@@H]3CCC4=CC(=O)C=C[C@]4(C)[C@@]3(Cl)[C@@H](O)C[C@]2(C)[C@@]1(OC(=O)c1ccco1)C(=O)CCl [NCGC00179578-03] | > 10 µM
Clc1ccc(Nc2nnc(Cc3ccncc3)c3ccccc23)cc1 [NCGC00181350-03] | > 10 µM
C1CN(P2(N3CC3)=NP(N3CC3)(N3CC3)=NP(N3CC3)(N3CC3)=N2)CCO1 (stereo not shown) [NCGC00160420-02] | > 10 µM
CC(=O)Nc1ccn(C2COC(COC(=O)c3ccccc3)O2)c(=O)n1 (stereo not shown) [NCGC00183850-01] | 0.312 µM
C[C@]12CC[C@@H]3c4ccc(O)cc4CC[C@H]3[C@@H]1CC[C@@H]2OC(=O)CCC1CCCC1 [NCGC00166134-02] | > 10 µM

Same assay, conditions: assay number 15; S phase; read-out: Hela CellCycMod PI S Phase summarized IC50

Compound | IC50
O=c1[nH]c(=O)n([C@H]2C[C@H](O)[C@@H](CO)O2)cc1I [NCGC00179673-03] | > 10 µM

Same assay, conditions: assay number 16; 4N

Compound | Hela CellCycMod PI 4N IC50/EC50
O=C(CCBr)N1CCN(C(=O)CCBr)CC1 [NCGC00095048-06] | > 10 µM
C[C@@H]1C[C@H]2[C@@H]3CCC4=CC(=O)C=C[C@]4(C)[C@@]3(Cl)[C@@H](O)C[C@]2(C)[C@@]1(OC(=O)c1ccco1)C(=O)CCl [NCGC00179578-03] | > 10 µM
CC(C)OC(=O)OCOP(=O)(CO[C@H](C)Cn1cnc2c(N)ncnc21)OCOC(=O)OC(C)C.O=C(O)/C=C/C(=O)O [NCGC00183876-03] | > 10 µM
Clc1ccc(Nc2nnc(Cc3ccncc3)c3ccccc23)cc1 [NCGC00181350-03] | > 10 µM
C1CN(P2(N3CC3)=NP(N3CC3)(N3CC3)=NP(N3CC3)(N3CC3)=N2)CCO1 (stereo not shown) [NCGC00160420-02] | > 10 µM
CC(=O)Nc1ccn(C2COC(COC(=O)c3ccccc3)O2)c(=O)n1 (stereo not shown) [NCGC00183850-01] | > 10 µM
C[C@]12CC[C@@H]3c4ccc(O)cc4CC[C@H]3[C@@H]1CC[C@@H]2OC(=O)CCC1CCCC1 [NCGC00166134-02] | > 10 µM
CCCCCCCCCCCCCCCCNc1ccc(C(=O)O)cc1 [NCGC00261985-01] | > 10 µM

Same assay, conditions: assay number 16; 4N; read-out: Hela CellCycMod PI 4N summarized IC50

Compound | IC50
O=c1[nH]c(=O)n([C@H]2C[C@H](O)[C@@H](CO)O2)cc1I [NCGC00179673-03] | > 10 µM

Same assay, conditions: assay number 17; MI

Compound | Hela CellCycMod PI MI IC50/EC50
O=C(CCBr)N1CCN(C(=O)CCBr)CC1 [NCGC00095048-06] | > 10 µM
C[C@@H]1C[C@H]2[C@@H]3CCC4=CC(=O)C=C[C@]4(C)[C@@]3(Cl)[C@@H](O)C[C@]2(C)[C@@]1(OC(=O)c1ccco1)C(=O)CCl [NCGC00179578-03] | > 10 µM
CC(C)OC(=O)OCOP(=O)(CO[C@H](C)Cn1cnc2c(N)ncnc21)OCOC(=O)OC(C)C.O=C(O)/C=C/C(=O)O [NCGC00183876-03] | > 10 µM
Clc1ccc(Nc2nnc(Cc3ccncc3)c3ccccc23)cc1 [NCGC00181350-03] | > 10 µM
C1CN(P2(N3CC3)=NP(N3CC3)(N3CC3)=NP(N3CC3)(N3CC3)=N2)CCO1 (stereo not shown) [NCGC00160420-02] | > 10 µM
CC(=O)Nc1ccn(C2COC(COC(=O)c3ccccc3)O2)c(=O)n1 (stereo not shown) [NCGC00183850-01] | > 10 µM
C[C@]12CC[C@@H]3c4ccc(O)cc4CC[C@H]3[C@@H]1CC[C@@H]2OC(=O)CCC1CCCC1 [NCGC00166134-02] | > 10 µM
CCCCCCCCCCCCCCCCNc1ccc(C(=O)O)cc1 [NCGC00261985-01] | > 10 µM

Same assay, conditions: assay number 17; MI; read-out: Hela CellCycMod PI MI summarized IC50

Compound | IC50
O=c1[nH]c(=O)n([C@H]2C[C@H](O)[C@@H](CO)O2)cc1I [NCGC00179673-03] | > 10 µM

Same assay, conditions: assay number 18; cell number

Compound | Hela CellCycMod PI Cell Number IC50/EC50
O=C(CCBr)N1CCN(C(=O)CCBr)CC1 [NCGC00095048-06] | > 10 µM
CC(C)OC(=O)OCOP(=O)(CO[C@H](C)Cn1cnc2c(N)ncnc21)OCOC(=O)OC(C)C.O=C(O)/C=C/C(=O)O [NCGC00183876-03] | 0.2888 µM
Clc1ccc(Nc2nnc(Cc3ccncc3)c3ccccc23)cc1 [NCGC00181350-03] | > 10 µM
C1CN(P2(N3CC3)=NP(N3CC3)(N3CC3)=NP(N3CC3)(N3CC3)=N2)CCO1 (stereo not shown) [NCGC00160420-02] | > 10 µM
CC(=O)Nc1ccn(C2COC(COC(=O)c3ccccc3)O2)c(=O)n1 (stereo not shown) [NCGC00183850-01] | 0.2813 µM
C[C@]12CC[C@@H]3c4ccc(O)cc4CC[C@H]3[C@@H]1CC[C@@H]2OC(=O)CCC1CCCC1 [NCGC00166134-02] | > 10 µM
CCCCCCCCCCCCCCCCNc1ccc(C(=O)O)cc1 [NCGC00261985-01] | > 10 µM

Same assay, conditions: assay number 18; cell number; read-out: Hela CellCycMod PI Cell Number summarized IC50

Compound | IC50
O=c1[nH]c(=O)n([C@H]2C[C@H](O)[C@@H](CO)O2)cc1I [NCGC00179673-03] | > 10 µM
